Measurements reported in patent US12534432B2, “Trisulfide compound” (Kyowa Pharma Chemical Co., Ltd., priority 2020, dated 2026).

Assay: hydrogen sulfide-trapping ability by methylene blue spectrophotometry
Settings: room temperature
Experimental: The presence or absence of a hydrogen sulfide-trapping ability (hydrogen sulfide elimination effect) of pantethine trisulfide (PANSSS) was evaluated through methylene blue spectrophotometry.
Sodium sulfide nonahydrate (Na2S·9H2O) was dissolved in purified water to prepare a 50 μmol/L sodium sulfide nonahydrate solution, which was used as a H2S standard solution.
p-Aminodimethylaniline was dissolved in 10 N sulfuric acid to prepare 1 mmol/L DPDA solution.
Iron (III) chloride hexahydrate was dissolved in 1% sulfuric acid to prepare a 3 mmol/L FeCl3·6H2O solution.
A 0.5 mmol/L pantethine trisulfide solution was prepared by dissolving pantethine trisulfide in 25 mmol/L phosphate buffer (PBS, pH 7).
10 mL of the H2S standard solution (0.5 μmol, standard) was added to a stoppered test tube and stirred. 1 mL (0.5 μmol, 1 eq.) of PBS (blank) or the pantethine trisulfide solution was added to this solution and stirred for a predetermined time (0, 5, 15 or 30 minutes). After stirring, 1 mL (1 μmol, 2 eq.) of the DPDA solution and 1 mL (3 μmol, 6 eq.) of the FeCl3·6H2O solution were added thereto and further stirred, and the absorbance (wavelength: 668 nm) of the solution was measured after the absorbance of the solution stopped changing (that is, after color development due to methylene blue production was completed). This test was conducted under the conditions of room temperature.

With `CC(C)(CO)[C@@H](O)C(=O)NCCC(=O)NCCSSSCCNC(=O)CCNC(=O)[C@H](O)C(C)(C)CO` [pantethine trisulfide] the “absorbance (wavelength: 668 nm) compared to the blank” value (0.5 μmol H2S, 1 eq. pantethine trisulfide in PBS pH 7, stirring 0, 5, 15 or 30 minutes) was “the longer the contact time (reaction time) between H2S and pantethine trisulfide, the lower the absorbance compared to the blank” and the “hydrogen sulfide-trapping ability (hydrogen sulfide elimination effect)” value (methylene blue spectrophotometry, 1 eq. to H2S) was “had a hydrogen sulfide-trapping ability”.
